Source: patent US20080206287A1, “Use of cyclosporin A to sensitize resistant cancer cells to death receptor ligands” (priority 2006, published 2008)
Entries after “also recorded” stand apart in the source; their conditions may differ.

Tests used:
FLIP mRNA = FLIP mRNA quantitative RT-PCR; assay type: cell-based; settings: responding and non-responding cell lines
Method: Quantitative RT-PCR. The cDNAs encoding the long isoform of FLIPL and GAPDH were amplified using the following primer pairs: 5′-[…]-3′ (forward primer for FLIP; SEQ ID NO:1), 5′-[…]-3′ (reverse primer for FLIP; SEQ ID NO:2), 5′-GAAGGTGAAGGTCGGAGTC-3′ (forward primer for GAPDH; SEQ ID NO:3), and 5′-[…]-3′ (reverse primer for GAPDH; SEQ ID NO:4). Equal amounts of cDNA for each sample were added to a prepared master mix (SYBR Green PCR Master mix, Applied Biosystems, Foster City, Calif.). Real-time quantitative PCR reactions were performed on an ABI Prism 7700 sequence detection system (Applied Biosystems, Foster City, Calif., USA). The relative abundance of a transcript was represented by the threshold cycle of amplification (CT), which is inversely correlated to the amount of target RNA/first strand cDNA being amplified. To normalize for equal amounts of the latter, the transcript levels of the putative housekeeping gene GAPDH were assayed. The comparative CT method was calculated as per manufacturer's instructions. To normalize the CT of FLIP for each sample, the following ratio was calculated: CT(FLIP)/CT(GAPDH). The expression level of FLIP relative to the baseline level was calculated as 2^−ΔΔCT(FLIP), where ΔCT is (average FLIP CT-average GAPDH CT) and ΔΔCT is (average ΔCT untreated sample−average ACT treated sample.
To determine whether the reductions in FLIP protein occurred at the level of mRNA or protein, FLIP mRNA expression was measured by Quantitative RT-PCR in cells treated with 5809354 or buffer control.

FLIP = FLIP protein immunoblot; assay type: cell-based, human; settings: for levels of FLIP protein (long isoform): PPC-1 cells, with or without CH-11, 24 hours, immunoblot
Method: Immunoblot analysis. Protein extracts were obtained by washing cells with phosphate-buffered saline (PBS) [pH 7.4] and suspending the cells in lysis buffer [10 mM Tris (pH 7.4), 150 mM NaCl, 0.1% Triton X-100, 0.5% sodium deoxycholate, and 5 mM EDTA] containing protease inhibitors (Complete tablets; Roche, Indianapolis, Ind.). Immunoblot assays were performed as described in Carter et al. (Blood 105:4043-4050, 2005). Briefly, equal amounts of protein as determined by a Bradford assay (Bradford, Anal. Biochem. 72:248-54, 1976) were subjected to SDS-PAGE (4-20% gradient gels from ISC BioExpress, Kaysville, Utah), followed by transfer to nitrocellulose membranes. Membranes were incubated with mouse monoclonal anti-human FLIP (NF6 clone) (1:500 v/v) (Alexis, San Diego, Calif.), 1:1,000 (v/v) anti-aspase-8 clone 5F7 (Upstate) and mouse monoclonal anti-tubulin (1:2000 v/v) (Sigma Inc). Secondary antibodies consisted of horseradish peroxidase-conjugated goat anti-rabbit IgG or goat anti-mouse IgG (Bio-Rad, Hercules, Calif.). Detection was performed by the enhanced chemiluminescence method (Pierce, Rockford, Ill.).
Effects of sensitizing compounds on FLIP protein. Since FAS-sensitizing compounds 6094911 and 5809354 modulate the extrinsic pathway downstream of TNF-family death receptors but upstream of effector caspases, the effects of those compounds on expression of FLIP, an intracellular antiapoptotic protein that binds caspases-8 and -10 and is capable of suppressing death receptor signaling at a proximal point within the extrinsic pathway, was examined. For these experiments, PPC-1 cells were treated with sensitizing compounds in the presence or absence of CH-11 antibody, then cell lysates were prepared 24 hours later, and analyzed by immunoblotting for FLIP.
The levels of the short isoform of FLIP were less than 5% of total FLIP protein as measured by immunoblotting and quantitative densitometry. Therefore, given the very low levels of the short isoform, the analysis was limited to the effects of the compounds on the long isoform of FLIP.

PPC-1 cells = assay: Apoptosis of PPC-1 cells transfected with CrmA or Bcl-XL; assay type: cell-based; settings: for protection by Bcl-XL against apoptosis induced by CH-11 plus compound: PPC-1 cells transfected with Bcl-XL; for protection by CrmA against apoptosis induced by CH-11 plus compound: PPC-1 cells transfected with CrmA
Method: Cell transfections. PPC-1 cells (2×10^5) were seeded in 35 mm diameter plates in RPMI with 10% FCS. The next day the cells were co-transfected using Lipofectamine Plus (Invitrogen, Carlsbad, Calif.) with 0.5 μg GFP-encoding plasmid pEGFP (Invitrogen) in combination with […] of plasmids encoding Bcl-XL, the viral caspase-8 inhibitor Crm A, or empty vector. At 2 days post-transfection, cells were incubated with various concentrations of CH-11 antibody and the test compounds for 24 hours, then the percentage apoptosis was scored by UV-microscopic analysis of the GFP-positive cells, counting a minimum of 200 cells. Cells that had rounded up and were floating in the medium were counted as non-viable, while cells that remained adherent to the plate with normal morphological features were counted as viable.
To further address the specificity of the compounds for the extrinsic pathway, the effects of selective apoptosis inhibitory genes were examined. For these experiments, PPC-1 cells were transfected with plasmids encoding CrmA, a viral protein that blocks the extrinsic pathway by inhibiting caspase-8 (Zhou et al., J. Biol. Chem. 272:7797-7800, 1997) or encoding Bcl-xL, a mitochondria-targeting protein that blocks the intrinsic pathway by inhibiting release of cytochrome c (Boise et al., Cell 74:597-608, 1993; Kharbanda et al., Proc. Natl. Acad. Sci. USA 94:6939-6942, 1997). After transfection, cells were treated with CH-11 antibody and compounds 6094911, 5809354, or […] scoring the percentage of apoptotic cells among the successfully transfected cells as determined by co-transfection of a GFP-marker plasmid.

FAS or TRAIL receptors = assay: Surface expression of death receptors by flow cytometry; assay type: cell-based; settings: PPC-1 cells
Description: Furthermore, since these compounds sensitize to both FAS and TRAIL, they presumably act distal to death receptors.

[1] = tested on: OVCAR-3 and T47D tumor lines; assay: Extrinsic versus intrinsic pathway stimuli in further tumor lines; assay type: cell-based

| SMILES | FLIP mRNA expression (FLIP mRNA) | levels of FLIP protein (long isoform) (FLIP) | protection by Bcl-XL against apoptosis induced by CH-11 plus compound (PPC-1 cells) | protection by CrmA against apoptosis induced by CH-11 plus compound (PPC-1 cells) | surface expression of FAS or TRAIL receptors (FAS or TRAIL receptors) | sensitization to extrinsic versus intrinsic pathway stimuli [1] | levels of FLIP (FLIP; non-responding cell lines DU145 and MDA-MB-468) |
| --- | --- | --- | --- | --- | --- | --- | --- |
| CCn1c(=N)n(CC(=O)c2cc(C(C)(C)C)c(O)c(C(C)(C)C)c2)c2ccccc21 [compound 5569100, 1-(3,5-Di-tert-butyl-4-hydroxy-phenyl)-2-(3-ethyl-2-imino-2,3-dihydro-benzoimidazol-1-yl)-ethanone] | did not reduce FLIP mRNA | decreased levels of FLIP protein; also recorded: reduced FLIP expression | no protective effect | almost completely protected | did not change | confirming that the results are not unique to PPC-1 cells | – |
| O=C(CCCOc1ccc(Cl)cc1Cl)NO [compound 5809354, 4-(2,4-dichlorophenoxy)-N-hydroxybutanamide] | reduced expression of FLIP mRNA; also recorded: decreased FLIP mRNA | decreased levels of FLIP protein | no protective effect | almost completely protected | did not change | confirming that the results are not unique to PPC-1 cells | decreased |
| CC(=O)CC(=O)Nc1ccc(Cl)c(C(F)(F)F)c1 [compound 6094911, N-[4-chloro-3-(trifluoromethyl)phenyl]-3-oxobutanamide] | did not reduce FLIP mRNA | did not alter levels of FLIP protein | no protective effect | almost completely protected | did not change | confirming that the results are not unique to PPC-1 cells | – |
